Results on one molecule are retold here after patent publication US20260315564A1, “THE USE OF TP3 (THYMOPENTIN ANALOG) BY INCREASING THE ACTIVITY AND NUMBER OF T-CELLS INVOLVED IN THE DEFENSE MECHANISM OF THE IMMUNE SYSTEM OF MAMMALS, FOR THE PREVENTION OR TREATMENT OF DISEASES TO EXTEND THE AVERAGE LIFESPAN” (priority 2023, published 2026).

The assay deals with peritoneal macrophages. The assay is described as follows: Phagocytic function of peritoneal macrophages ex vivo in CFLP outbred mice (CY-immunosuppressed). The text has this: 6.2./Examination of the Effect on the Phagocytic Function of Peritoneal Macrophages CFLP Outbred in Mice
Macrophage phagocytosis ex vivo (X=yeast/100 cells)

Marks after values point to notes of the source that are not given here.

Regarding `O=P1(N(CCCl)CCCl)NCCCO1` (centres unmarked) [CY], the “phagocytic activity of macrophages” value (CY immunosuppression, 1.0 mg/kg/sc (TP3), in words) was “significantly inhibited”. Moreover, under “CY p.o. alone, n = 15, untreated control 194.5”, the “macrophage phagocytosis ex vivo” value was 111.5* yeast/100 cells.
